Activity calls are given as the source filed them. No cut-off for these calls is given here.
Target: NLRP3-NEK7 (Mus musculus) (UniProt Q8R4B8+Q9ES74)
Assay: Inhibition of NLRP3/NEK7 protein-protein interaction in LPS/ATP-induced C57BL/6 mouse BMDMs at 200 nM preincubated with LPS for 4 hrs followed by compound addition for 30 mins and further stimulated with ATP for 30 mins by Western blotting analysis
Format: cell-based
Settings: BMDM, time 1.0 hrs

Sequence of NLRP3-NEK7 (Mus musculus) (Q8R4B8 whole entry, looked up): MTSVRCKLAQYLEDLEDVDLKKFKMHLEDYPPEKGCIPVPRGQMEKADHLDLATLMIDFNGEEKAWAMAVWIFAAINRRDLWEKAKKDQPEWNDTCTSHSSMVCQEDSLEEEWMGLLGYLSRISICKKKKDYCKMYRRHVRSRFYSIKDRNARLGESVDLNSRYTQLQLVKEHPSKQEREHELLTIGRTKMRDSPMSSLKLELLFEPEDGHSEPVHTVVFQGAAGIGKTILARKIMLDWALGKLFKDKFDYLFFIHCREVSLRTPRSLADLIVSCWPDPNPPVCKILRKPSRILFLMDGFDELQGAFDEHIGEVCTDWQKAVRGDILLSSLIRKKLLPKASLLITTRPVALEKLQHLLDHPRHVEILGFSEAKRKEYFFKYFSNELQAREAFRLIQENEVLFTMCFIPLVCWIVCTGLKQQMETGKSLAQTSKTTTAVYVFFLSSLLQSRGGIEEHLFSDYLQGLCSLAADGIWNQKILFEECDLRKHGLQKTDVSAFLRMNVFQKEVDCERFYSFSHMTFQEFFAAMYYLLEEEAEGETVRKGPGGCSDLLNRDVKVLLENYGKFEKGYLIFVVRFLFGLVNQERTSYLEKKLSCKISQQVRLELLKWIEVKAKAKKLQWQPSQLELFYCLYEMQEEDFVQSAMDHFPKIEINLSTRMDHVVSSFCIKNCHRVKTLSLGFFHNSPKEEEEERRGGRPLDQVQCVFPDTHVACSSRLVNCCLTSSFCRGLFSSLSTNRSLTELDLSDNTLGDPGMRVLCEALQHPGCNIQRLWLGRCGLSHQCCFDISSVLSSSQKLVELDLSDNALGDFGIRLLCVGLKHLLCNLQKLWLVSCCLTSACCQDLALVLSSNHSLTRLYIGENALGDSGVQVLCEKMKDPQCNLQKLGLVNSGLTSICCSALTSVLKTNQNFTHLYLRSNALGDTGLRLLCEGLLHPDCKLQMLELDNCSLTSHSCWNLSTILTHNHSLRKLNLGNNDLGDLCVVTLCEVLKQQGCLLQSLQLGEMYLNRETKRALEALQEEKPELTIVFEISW
Sequence of NLRP3-NEK7 (Mus musculus) (Q9ES74 whole entry, looked up): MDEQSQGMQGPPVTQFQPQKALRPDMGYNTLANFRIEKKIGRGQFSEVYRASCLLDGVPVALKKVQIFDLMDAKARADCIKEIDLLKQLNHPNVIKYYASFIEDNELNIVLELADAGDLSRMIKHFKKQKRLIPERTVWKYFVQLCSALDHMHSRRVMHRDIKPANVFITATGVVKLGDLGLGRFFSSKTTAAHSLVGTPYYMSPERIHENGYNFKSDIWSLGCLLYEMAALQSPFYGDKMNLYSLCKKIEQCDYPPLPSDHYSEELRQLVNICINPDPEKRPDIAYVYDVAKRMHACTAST

- inhibition: Active
SMILES: C=C1C(=O)[C@]23[C@H](O)[C@H]1CC[C@H]2[C@]12C=CCC(C)(C)[C@H]1[C@H](O)[C@@]3(OCCC(=O)O)OC2

Source: ChEMBL document CHEMBL5506055, “Hit-to-Lead Optimization of the Natural Product Oridonin as Novel NLRP3 Inflammasome Inhibitors with Potent Anti-Inflammation Activity” (J Med Chem, 2024)
